Data published in PMC2644789, “Dissection of Kinesin's Processivity” (PLoS ONE, 2009).

What was measured:
Assay type in all cases: biochemical, Neurospora crassa
[1] = tested on: T1, Head3/Neck1; experiment: stopped-flow light scattering, ATP-induced microtubule detachment; conditions: dissociation of preformed apyrase-treated kinesin-microtubule complex, 0.4 µM complex, 0-1000 µM ATP; read-out: Detachment / K0.5,ATP
T1 construct: gene NcKin3; fusion in one polypeptide: NcKin3 residues 1-429 (motor and neck-linker) replacing the head of NcKin436 (NcKin head elsewhere 1-342); C-terminal PSIVHRKCF (cys) or hTail; dimer; with Kinesin heavy chain
Excerpt: stopped-flow light scattering, ATP-induced microtubule detachment on Head3/Neck1

[2] = tested on: T2, Head1/Neck3; experiment: coupled enzymatic steady-state ATPase assay; conditions: microtubule-activated (pig brain tubulin), 12.5 mM Aces-KOH, 25 mM potassium acetate, 5 mM MgCl2, EGTA, pH 6.8, 22°C; read-out: Steady state ATPase / KM,ATP
T2 construct: gene NcKin; fusion in one polypeptide: NcKin residues 1-342 (motor and neck-linker) replacing the N-terminal 427 residues of NcKin3_558; C-terminal PSIVHRKCF (cys) or hTail; dimer; with Kinesin-3 motor protein NcKin3
Excerpt: coupled enzymatic steady-state ATPase assay on Head1/Neck3

[3] = tested on: T1, Head3/Neck1; experiment: coupled enzymatic steady-state ATPase assay; conditions: microtubule-activated (pig brain tubulin), 12.5 mM Aces-KOH, 25 mM potassium acetate, 5 mM MgCl2, EGTA, pH 6.8, 22°C; read-out: Steady state ATPase / KM,ATP
Excerpt: coupled enzymatic steady-state ATPase assay on Head3/Neck1

[4] = substrate: Nc1ncnc2c1ncn2[C@@H]1O[C@H](COP(=O)(O)OP(=O)(O)OP(=O)(O)O)[C@@H](O)[C@H]1O; experiment: coupled enzymatic steady-state ATPase assay; conditions: microtubule-activated (pig brain tubulin), 12.5 mM Aces-KOH, 25 mM potassium acetate, 5 mM MgCl2, EGTA, pH 6.8, 22°C
Excerpt: coupled enzymatic steady-state ATPase assay on NcKin (NcKin436; wildtype reference)

| Km [1] [µM] | Km [2] [µM] | Km [3] [µM] | Molecule | Km [4] [µM] | kcat [4] [s⁻¹] |
| --- | --- | --- | --- | --- | --- |
| 105 ± 26.6 | 33.1 ± 4.6 | 49.1 ± 1.3 | Nc1ncnc2c1ncn2[C@@H]1O[C@H](COP(=O)(O)OP(=O)(O)OP(=O)(O)O)[C@@H](O)[C@H]1O [ATP] |  |  |
|  |  |  | NcKin (NcKin436; wildtype reference) (Neurospora crassa OR74A) (protein, C-terminally truncated NcKin436 (motor, neck-linker, neck coiled coil, partial stalk), expressed from pT7 vector; C-terminal reactive-cysteine peptide … or hTail; dimer) MSSSANSIKVVARFRPQNRVEIESGGQPIVTFQGPDTCTVDSKEAQGSFTFDRVFDMSCKQSDIFDFSIKPTVDDILNGYNGTVFAYGQTGAGKSYTMMGTSIDDPDGRGVIPRIVEQIFTSILSSAANIEYTVRVSYMEIYMERIRDLLAPQNDNLPVHEEKNRGVYVKGLLEIYVSSVQEVYEVMRRGGNARAVAATNMNQESSRSHSIFVITITQKNVETGSAKSGQLFLVDLAGSEKVGKTGASGQTLEEAKKINKSLSALGMVINALTDGKSSHVPYRDSKLTRILQESLGGNSRTTLIINCSPSSYNDAETLSTLRFGMRAKSIKNKAKVNAELSPAELKQMLAKAKTQITSFENYIVNLESEVQVWRGGETVPKEKWVPPLELAITPSKSASTTARPSTPSRLLPESRAETPAISDRAGTPSLPLDKDE | 64.5 ± 20.4 | 66.9 ± 18.1 |
